Series [1] concerns humanem Coloncarcinom (HT-29 P9). In words: Effect of light (ED50) on a tumour cell culture in the presence of porphyrins (phototoxicity). The class given is cell-based, human. The conditions noted are these: concentration at which about half of the cells are no longer vital, 3 days xenon lamp (8,5 k Lux, UV filter), 2 x 30 min daily, count on day 4. How it is done: In Kulturflaschen von 25 ml Inhalt wird eine Zellkultur von humanem Coloncarcinom (HT-29 P9) 3 Tage bei 37°C vermehrt. Die Kulturen werden in zwei Grupen aufgeteilt und mit Lösungen der Prüfsubstanzen (50 mmol Porphyrineinheit (PE) /l, verdünnt mit fötalem Kälberserum) in zunehmender Menge (0; 1,5; 5; 8,5; 12; 15,5; 19 µmol PE/l) versetzt. Die Proben werden drei Tage lang mit einer Xenon-Lampe (8,5 k Lux, UV-Filter) bestrahlt. Die erste Gruppe erhält täglich 2 Bestrahlungen von je 30 Minuten Dauer im Abstand von 4 Stunden. Die restliche Zeit bleibt sie im Dunkeln im Brutschrank. Die zweite Gruppe wird nicht belichtet und bleibt die gesamte Zeit im Dunkeln im Brutschrank. Am vierten Tag wird das Zellwachstum durch Lebend-Tot-Färbung und Zählung mit der Zählkammer bestimmt.
In der Tabelle ist die Konzentration angegeben, bei der etwa die Hälfte der Zellen nicht mehr vital ist.

Series [2] can be described thus: Determination of relaxivity R1. The series is classed as physicochemical. Particulars: Wasser; 40°C; 0,47 Tesla; Minispec PC 20; n=3. How it is done: • Bestimmung der Relaxivity R1 [L·mmol^-1 ·s^-1] • Gerät: Minispec PC 20 • Messung bei 40°C; 0,47 Tesla • T1-Sequenz: 180°-TI-90°, Inversion Recovery
In series [3] the test system is Tieren mit induziertem Myocardinfarkt. As to the kind of experiment: MRI experiments in animals with induced myocardial infarction (necrosis-selective enhancement). Particulars: for Enhancement im nekrotischen Areal des Myocards: single i.v. dose 100 µmol Gd / kg KGW ca. 24 h after infarct induction, middle and late phase, 2.5 to ca. 24 h p. i., MRI 2 Tesla; for Abgrenzung des nekrotischen Areals im MRI-Experiment, Korrelation mit histologischer NBT ("Vital"-) Färbung: single i.v. dose 100 µmol Gd / kg KGW, heart prepared ca. 24 h p. i. The series is classed as in vivo, Ratten (Han.Wistar, Schering SPF). How it is done:
Das nekroseselektive Enhancement wurde nach einmaliger intravenöser Applikation der Substanz aus Beispiel 1d an Tieren mit experimentell erzeugtem Myocardinfarkt im MRI Experiment untersucht. Die Induktion der Herzinfarkte erfolgte an narkotisierten (Domitor®/Dormicum®, i.m.) Ratten (Han.Wistar, Schering SPF, ca.300 g KGW) durch Okklusion der linken Coronararterie. Die Kontrastmittelapplikation (Dosis: 100 µmol Gd / kg KGW) erfolgte ca. 24 h nach der Infarktinduktion. Die Tiere wurden vor und bis 24 h nach KM-Applikation MR-tomographisch (SISCO SIS 85, 2 Tesla; SE-Sequenz, EKG-getriggert, TR: ca. 400 ms, TE: 10 ms, nt=4, ni=256, FOV: 7*7 cm, SD ≈ 3 mm, je 1 Schicht axial) untersucht. Ca. 24 h p. i. wurden die Tiere - im MRT - durch eine Narkotikaüberdosis getötet und zusätzlich ein MRI-Experiment am "frischtoten" Tier (--> keine Bewegungsartefakte) durchgeführt. Zur Verifizierung des Infarktes (Größe und Lage) wurde das Herz präpariert, in Scheiben geschnitten und anschließend eine NBT ("Vital-") Färbung durchgeführt. Vor KM-Applikation ist das infarzierte Areal nicht vom "normalen" Myocard zu unterscheiden, da sich beide Areale isointens darstellen (s. Abb.: 1a). Direkt nach der Substanzapplikation stellt sich der nicht-perfundierte Anteil des Myocards als hypointenses Areal dar (s. Abb.: 1b). Ab ca. 30 min p. i. steigt die Signalintensität im nicht-perfundierten Areal etwas an bzw. die Größe des abgegrenzten (Signalarmen) Areals nimmt ab (--> langsame Diffusion in die Nekrose).
Das nekroseselektive Enhancement wurde nach einmaliger intravenöser Applikation der Substanz aus Beispiel 2d an Tieren mit experimentell erzeugtem Myocardinfarkt im MRI Experiment untersucht. Die Induktion der Herzinfarkte erfolgte an narkotisierten (Domitor®/Dormicum®, i.m.) Ratten (Han.Wistar, Schering SPF, ca.300 g KGW) durch Okklusion der linken Coronararterie. Die Kontrastmittelapplikation (Dosis: 100 µmol Gd / kg KGW ) erfolgte ca. 24 h nach der Infarktinduktion. Die Tiere wurden vor und bis 3 h (kontinuierlich) sowie 24 h nach KM-Applikation MR-tomographisch (SISCO SIS 85, 2 Tesla; SE-Sequenz, EKG-getriggert, TR: ca. 400 ms, TE: 10 ms, nt=4, ni=256, FOV: 7*7 cm, SD ≈ 3 mm, je 1 Schicht axial) untersucht. Ca. 24 h p. i. wurden die Tiere - im MRT - durch eine Narkotikaüberdosis getötet und ein MRI-Experiment am "frischtoten" Tier (--> keine Bewegungsartefakte) durchgeführt. Zur Verifizierung des Infarktes (Größe und Lage) wurde das Herz präpariert, in Scheiben geschnitten und anschließend eine NBT (nitro blue tetrazolium chlorid) Färbung durchgeführt. Vor KM-Applikation ist das infarzierte Areal nicht vom "normalen" Myocard zu unterscheiden, da sich beide Areale isointens darstellen (s. Abb.: 2a). Direkt nach der Substanzapplikation stellt sich der nicht-perfundierte Anteil des Myocards als hypointenses Areal dar (s. Abb.: 2b). Ab ca. 30 min p. i. steigt die Signalintensität im nicht-perfundierten Areal etwas an bzw. die Größe des abgegrenzten (signalarmen) Areals nimmt ab (--> langsame Diffusion in die Nekrose).
Das nekroseselektive Enhancement wurde nach einmaliger intravenöser Applikation der Substanz aus Beispiel 4d an Tieren mit experimentell erzeugtem Myocardinfarkt im MRI Experiment untersucht. Die Induktion der Herzinfarkte erfolgte an narkotisierten (Domitor®/Dormicum®, i. m.) Ratten (Han. Wistar, Schering SPF, ca. 300 g KGW) durch Okklusion der linken Coronararterie. Die Kontrastmittelapplikation (Dosis: 100 µmol Gd / kg KGW) erfolgte ca. 24 h nach der Infarktinduktion. Die Tiere wurden vor und bis 3 h (kontinuierlich) sowie 24 h nach KM-Applikation MR-tomographisch (SISCO SIS 85, 2 Tesla; SE-Sequenz, EKG-getriggert, TR: ca. 400 ms, TE: 10 ms, nt=4, ni=256, FOV: 7*7 cm, SD ≈ 3 mm, je 1 Schicht axial) untersucht. Ca. 24 h p. i. wurden die Tiere - im MRT - durch eine Narkotikaüberdosis getötet und ein MRI-Experiment am "frischtoten" Tier (--> keine Bewegungsartefakte) durchgeführt. […]

Series [4] is described as follows: In vivo comparison of blood kinetics with Dy-DTPA. The conditions noted are these: for Blutkonzentrationen: rats, i.v. 82 µmol Gd/kg.
The nature of series [5]: Acute tolerance after single intravenous administration. The class given is in vivo, SPF-Mäuse (NMRI, Schering). The conditions noted are these: mouse, single i.v., observation 7 days. On the procedure:
Es soll die Akute Verträglichkeit der Titelverbindung aus Beispiel 2d nach einmaliger intravenöser Gabe an der Maus untersucht werden.
Testmethode: Methode KM D1, 5. Auflage Tiermaterial: SPF-Mäuse (NMRI, Schering), 18-22 g, f:m = 50:50 Injektionsgeschwindigkeit: 2 ml/min. Kriterium der Wirksamkeit: exitus letalis Beobachtungszeitraum: 7 Tage

Where [6] appears, read: plasma, rats n=3, i.v., 82 µmol Gd/kg (Verbindung 1), 103 µmol Dy/kg (Verbindung 2).

Values joined by “and” are separate entries in the source; they are usually repeats but may differ in a detail not shown here. Equal entries are not always repeated. A value given as a limit tells only on which side of the number the result lay.

On to “{mu-[{16, 16'-(7, 12-Diethyl-3, 8, 13, 17-tetramethylporphyrin-2, 18-diyl]-bis[3,6,9-tris(carboxymethyl)-11, 14-dioxo-3, 6, 9,12, 13-pentaazahexadecanoato]}(8-)]}-digadolinato(2-),-Dinatrium [IV, reference compound]”, for which the ED50 in series [1] is 6,4·10^-3 mmol PE/l. For the same substance, in series [2], the “Relaxivity R1” value amounted to 9.2 ± 0.1 L/mmol/s.

Consider “{mu-[{16,16'-[Chloroeisen(III)-7, 12-diethyl-3, 8, 13, 17-tetramethylporphyrin-2, 18-diyl]-bis[3, 6, 9-tris(carboxymethyl)-11,14-dioxo-3, 6, 9, 12, 13-pentaazahexadecanoato]}(8-)]}-digadolinato(2-) [Beispiel 1d]”, for which, in series [3], the “Enhancement im nekrotischen Areal des Myocards” value is listed as “deutliches Enhancement” and the “Abgrenzung des nekrotischen Areals im MRI-Experiment, Korrelation mit histologischer NBT ("Vital"-) Färbung” value is “korreliert sehr gut”. The ED50 in series [1] is on record as > 1,25 mmol PE/l. Besides, in series [4] (setting [6]), the Vd ss was found to be 0.08 ± 0.00 L/kg; the α-t½ amounted to 3.56 ± 1.01 min; the β-t½ was 2.88 h and 2.8817 ± 0.646 h. In series [4] (after 120 min), the Blutkonzentrationen is recorded as 22-25 % der Dosis. Further, the Blutkonzentrationen in series [4] (after three minutes) was 56-63 % der Dosis. The “Relaxivity R1” value in series [2] worked out at 11.9 ± 1.0 L/mmol/s.

On to “{mu-[{16,16'-[Kupfer(II)-7, 12-diethyl-3, 8, 13, 17-tetramethylporphyrin-2,18-diyl]-bis[3, 6, 9-tris(carboxymethyl)-11, 14-dioxo-3, 6, 9, 12, 13-pentaazahexadecanoato]}(8-)]}-digadolinato(2-), Dinatrium [Beispiel 4d]”, for which, in series [3], the “Enhancement im nekrotischen Areal des Myocards” value is reported as “deutliches Enhancement” and the “Abgrenzung des nekrotischen Areals im MRI-Experiment, Korrelation mit histologischer NBT ("Vital"-) Färbung” value is on record as “korreliert sehr gut”. Also, in series [1], the ED50 is recorded as > 1,25 mmol PE/l. In addition, the “Relaxivity R1” value in series [2] was 11.0 ± 0.1 L/mmol/s.

Turning to “{mu-[{16, 16'-[Chloromangan(III)-7, 12-diethyl-3, 8, 13, 17-tetramethylporphyrin-2, 18-diyl]-bis[3, 6, 9-tris(carboxymethyl)-11, 14-dioxo-3, 6, 9, 12, 13-pentaazahexadecanoato]}(8-)]}-digadolinato(2-),-Dinatrium [Beispiel 2d]”, in series [3], the “Enhancement im nekrotischen Areal des Myocards” value is “deutliches Enhancement” and the “Abgrenzung des nekrotischen Areals im MRI-Experiment, Korrelation mit histologischer NBT ("Vital"-) Färbung” value is reported as “korreliert sehr gut”. In addition, the ED50 in series [1] is > 1,25 mmol PE/l. Besides, the LD50 in series [5] (2 ml/min, value stated as to be expected) is on record as not below 5 mmol Gd/kg. For the same substance, the “Lebern und Nieren aller überlebenden Tiere” value in series [5] is on record as “unauffällig”. Moreover, in series [2], the “Relaxivity R1” value was found to be 9.3 ± 0.1 L/mmol/s.
